The record followed here is PubChem BioAssay AID1745844 (Carcinogenic Potency Database (CPDB), 2022).

Activity calls are given as the source filed them. No rule for the calls is given here.

This series concerns rodent lifetime carcinogenesis bioassay, tumor incidence TD50. The experiment in a line: chronic cancer bioassays in animals – CPDB, compiled studies (AID 1745844).

For orientation: TD50 means the 50% point of the dose-response relation for the toxic effect studied. Take `CN(CCCO)N=O`: the TD50 is 3.48 mg/kg/day (rat, strain Fischer 344, females, by gavage, site: liver, lesion: neoplastic nodule, dosed 130 weeks, study length 130 weeks); 14.4 mg/kg/day (rat, strain Fischer 344, females, by gavage, site: lung, lesion: alveolar/bronchiolar adenoma, dosed 130 weeks, study length 130 weeks); 24.9 mg/kg/day (rat, strain Fischer 344, females, by gavage, site: lung, lesion: alveolar/bronchiolar carcinoma, dosed 130 weeks, study length 130 weeks); 8.06 mg/kg/day (rat, strain Fischer 344, females, by gavage, site: lung, lesion: several types, types named in the paper, dosed 130 weeks, study length 130 weeks); 4.78 mg/kg/day (rat, strain Fischer 344, males, by gavage, site: liver, lesion: neoplastic nodule, dosed 130 weeks, study length 130 weeks); 8.46 mg/kg/day (rat, strain Fischer 344, males, by gavage, site: lung, lesion: alveolar/bronchiolar adenoma, dosed 130 weeks, study length 130 weeks). The TD50 (rat, strain Fischer 344, males, by gavage, site: lung, lesion: alveolar/bronchiolar carcinoma, dosed 130 weeks, study length 130 weeks) was 2.46 mg/kg/day; the TD50 (rat, strain Fischer 344, males, by gavage, site: lung, lesion: several types, types named in the paper, dosed 130 weeks, study length 130 weeks) was 1.09 mg/kg/day; the TD50 (rat, strain Fischer 344, males, by gavage, site: testis, lesion: interstitial-cell tumor, dosed 130 weeks, study length 130 weeks) is 2.26 mg/kg/day.
Consider `CC1=C(C(=O)OCCN(Cc2ccccc2)c2ccccc2)C(c2cccc([N+](=O)[O-])c2)C(P2(=O)OCC(C)(C)CO2)=C(C)N1` (configuration not stated), for which the carcinogen call reads like this: (mouse, strain B6C3F1, females, in feed, site: any site (literature study), lesion: several types, types named in the paper, dosed 104 weeks, study length 104 weeks) “negative (inactive)”; (mouse, strain B6C3F1, females, in feed, site: lung, lesion: alveolar/bronchiolar adenoma, dosed 104 weeks, study length 104 weeks) “negative (inactive)”; (mouse, strain B6C3F1, males, in feed, site: any site (literature study), lesion: several types, types named in the paper, dosed 104 weeks, study length 104 weeks) “negative (inactive)”; (mouse, strain B6C3F1, males, in feed, site: liver, lesion: hepatocellular adenoma, dosed 104 weeks, study length 104 weeks) “negative (inactive)”; (mouse, strain B6C3F1, males, in feed, site: liver, lesion: hepatocellular carcinoma, dosed 104 weeks, study length 104 weeks) “negative (inactive)”; (mouse, strain B6C3F1, males, in feed, site: lung, lesion: alveolar/bronchiolar adenoma, dosed 104 weeks, study length 104 weeks) “negative (inactive)”. Also, the carcinogen call (mouse, strain B6C3F1, males, in feed, site: lung, lesion: alveolar/bronchiolar carcinoma, dosed 104 weeks, study length 104 weeks) was “negative (inactive)”; the carcinogen call (rat, strain F344/DuCrj, females, in feed, site: liver, lesion: hepatocellular adenoma, dosed 104 weeks, study length 104 weeks) is “negative (inactive)”; the carcinogen call (rat, strain F344/DuCrj, males, in feed, site: any site (literature study), lesion: several types, types named in the paper, dosed 104 weeks, study length 104 weeks) is “negative (inactive)”. For the same compound, the TD50 is, setting by setting: (mouse, strain B6C3F1, females, in feed, site: liver, lesion: hepatocellular adenoma, dosed 104 weeks, study length 104 weeks) 11500 mg/kg/day (inactive); (mouse, strain B6C3F1, females, in feed, site: liver, lesion: hepatocellular carcinoma, dosed 104 weeks, study length 104 weeks) 7430 mg/kg/day (inactive); (mouse, strain B6C3F1, females, in feed, site: lung, lesion: alveolar/bronchiolar carcinoma, dosed 104 weeks, study length 104 weeks) 12300 mg/kg/day (inactive); (mouse, strain B6C3F1, females, in feed, site: lymph node, lesion: malignant lymphoma, dosed 104 weeks, study length 104 weeks) 276 mg/kg/day (inactive); (rat, strain F344/DuCrj, females, in feed, site: any site (literature study), lesion: several types, types named in the paper, dosed 104 weeks, study length 104 weeks) 244 mg/kg/day (inactive); (rat, strain F344/DuCrj, males, in feed, site: liver, lesion: several types, types named in the paper, dosed 104 weeks, study length 104 weeks) 2310 mg/kg/day (inactive).
As for `CCN(Cc1cccc(S(=O)(=O)O)c1)c1ccc(C(=C2C=CC(=[N+](CC)Cc3cccc(S(=O)(=O)[O-])c3)C=C2)c2ccc(S(=O)(=O)O)cc2)cc1`, the TD50 is, setting by setting: (mouse, strain C3HeB/FeJ, females, in feed, site: any site (literature study), lesion: malignant tumor, dosed 104 weeks, study length 104 weeks) 152000 mg/kg/day (inactive); (mouse, strain C3HeB/FeJ, females, in feed, site: any site (literature study), lesion: several types, types named in the paper, dosed 104 weeks, study length 104 weeks) 148000 mg/kg/day; (mouse, strain C3HeB/FeJ, females, in feed, site: lung, lesion: several types, types named in the paper, dosed 104 weeks, study length 104 weeks) 43800 mg/kg/day; (mouse, strain C3HeB/FeJ, males, in feed, site: any site (literature study), lesion: malignant tumor, dosed 104 weeks, study length 104 weeks) 49300 mg/kg/day (inactive); (mouse, strain C3HeB/FeJ, males, in feed, site: any site (literature study), lesion: several types, types named in the paper, dosed 104 weeks, study length 104 weeks) 318000 mg/kg/day; (mouse, strain C3HeB/FeJ, males, in feed, site: liver, lesion: several types, types named in the paper, dosed 104 weeks, study length 104 weeks) 18900 mg/kg/day. Further, the TD50 was 58200 mg/kg/day (mouse, strain C3HeB/FeJ, males, in feed, site: lung, lesion: several types, types named in the paper, dosed 104 weeks, study length 104 weeks) and 5640 mg/kg/day (rat, strain Wistar, both sexes, in feed, site: cecum, lesion: malignant lymphoma, dosed 95 weeks, study length 95 weeks). In addition, the carcinogen call reads like this: (rat, strain Not specified, males, in feed, site: any site (literature study), lesion: one or several types, types not named, dosed 65 weeks, study length 65 weeks) “negative (inactive)”; (rat, strain Osborne-Mendel, females, in feed, site: any site (literature study), lesion: malignant tumor, dosed 104 weeks, study length 104 weeks) “negative (inactive)”; (rat, strain Osborne-Mendel, females, in feed, site: any site (literature study), lesion: several types, types named in the paper, dosed 104 weeks, study length 104 weeks) “negative (inactive)”; (rat, strain Osborne-Mendel, females, in feed, site: liver, lesion: one or several types, types not named, dosed 104 weeks, study length 104 weeks) “negative (inactive)”; (rat, strain Osborne-Mendel, males, in feed, site: any site (literature study), lesion: malignant tumor, dosed 104 weeks, study length 104 weeks) “negative (inactive)”; (rat, strain Osborne-Mendel, males, in feed, site: any site (literature study), lesion: several types, types named in the paper, dosed 104 weeks, study length 104 weeks) “negative (inactive)”. Also, the carcinogen call (rat, strain Osborne-Mendel, males, in feed, site: liver, lesion: hepatocellular adenoma, dosed 104 weeks, study length 104 weeks) is “negative (inactive)”.
As for `C[N+](C)(C)CCCl`, the TD50 runs as follows: (mouse, strain B6AKF1, females, oral dosing, site: any site (literature study), lesion: several types, types named in the paper, dosed 76 weeks, study length 76 weeks) 33.5 mg/kg/day; (mouse, strain B6AKF1, males, oral dosing, site: any site (literature study), lesion: several types, types named in the paper, dosed 76 weeks, study length 76 weeks) 21.3 mg/kg/day; (mouse, strain B6AKF1, males, oral dosing, site: liver, lesion: hepatoma, dosed 76 weeks, study length 76 weeks) 11.4 mg/kg/day; (mouse, strain B6C3F1, females, oral dosing, site: any site (literature study), lesion: several types, types named in the paper, dosed 76 weeks, study length 76 weeks) 57.4 mg/kg/day; (mouse, strain B6C3F1, males, in feed, site: any site (literature study), lesion: several types, types named in the paper, dosed 102 weeks, study length 102 weeks) 3240 mg/kg/day (inactive); (mouse, strain B6C3F1, males, in feed, site: liver, lesion: hepatocellular adenoma + hepatocellular carcinoma + neoplastic nodule, dosed 102 weeks, study length 102 weeks) 599 mg/kg/day. The TD50 was 5.19 mg/kg/day (mouse, strain B6C3F1, males, oral dosing, site: any site (literature study), lesion: several types, types named in the paper, dosed 76 weeks, study length 76 weeks); 9.38 mg/kg/day (mouse, strain B6C3F1, males, oral dosing, site: liver, lesion: hepatoma, dosed 76 weeks, study length 76 weeks); 8090 mg/kg/day (rat, strain Fischer 344, females, in feed, site: liver, lesion: hepatocellular adenoma + hepatocellular carcinoma + neoplastic nodule, dosed 108 weeks, study length 108 weeks); 3360 mg/kg/day (rat, strain Fischer 344, males, in feed, site: any site (literature study), lesion: several types, types named in the paper, dosed 108 weeks, study length 108 weeks); 458 mg/kg/day (inactive) (rat, strain Fischer 344, males, in feed, site: pancreatic islets, lesion: islet-cell adenoma, dosed 108 weeks, study length 108 weeks). Further, the carcinogen call was “negative (inactive)” (mouse, strain B6C3F1, females, in feed, site: any site (literature study), lesion: several types, types named in the paper, dosed 102 weeks, study length 102 weeks) and “negative (inactive)” (rat, strain Fischer 344, females, in feed, site: any site (literature study), lesion: several types, types named in the paper, dosed 108 weeks, study length 108 weeks).
